Data as given in patent US10898471B2, “Methods of inhibiting leukotriene A4 hydrolase” (Celltaxis, LLC, priority 2013, dated 2021).

How the values were obtained:
[1] = human pharmacokinetics: plasma concentration over time after oral dose; assay type: in vivo
Experimental: The two sets of dashed, horizontal lines indicate the plasma concentration that is three-times (3×) the IC50 and the plasma concentration that is one-time (1×) the IC50 of 4-{[(1S,4S)-5-({4-[4-oxazol-2-yl-phenoxy]phenyl}methyl)-2,5-diazabicyclo[2.2.1]heptan-2-yl]methyl}benzoic acid in human blood.
(§1) Thus, oral human doses as low as 10 mg can provide therapeutic benefit in the current formulation and, with improved formulation, doses as low as 5 mg can achieve therapeutic levels of the compound in blood.

LTA4-h = target: T1, LTA4-h (Homo sapiens, UniProt P09960); experiment: human whole blood ex vivo assay: A23187-stimulated LTB4 production measured by ELISA; assay type: cell-based; conditions: IC50 in human whole blood
T1 construct: in human whole blood has been determined using an ex vivo assay; from tissue; host or cells: human whole blood (male and female donors)
T1 sequence (P09960 1-611): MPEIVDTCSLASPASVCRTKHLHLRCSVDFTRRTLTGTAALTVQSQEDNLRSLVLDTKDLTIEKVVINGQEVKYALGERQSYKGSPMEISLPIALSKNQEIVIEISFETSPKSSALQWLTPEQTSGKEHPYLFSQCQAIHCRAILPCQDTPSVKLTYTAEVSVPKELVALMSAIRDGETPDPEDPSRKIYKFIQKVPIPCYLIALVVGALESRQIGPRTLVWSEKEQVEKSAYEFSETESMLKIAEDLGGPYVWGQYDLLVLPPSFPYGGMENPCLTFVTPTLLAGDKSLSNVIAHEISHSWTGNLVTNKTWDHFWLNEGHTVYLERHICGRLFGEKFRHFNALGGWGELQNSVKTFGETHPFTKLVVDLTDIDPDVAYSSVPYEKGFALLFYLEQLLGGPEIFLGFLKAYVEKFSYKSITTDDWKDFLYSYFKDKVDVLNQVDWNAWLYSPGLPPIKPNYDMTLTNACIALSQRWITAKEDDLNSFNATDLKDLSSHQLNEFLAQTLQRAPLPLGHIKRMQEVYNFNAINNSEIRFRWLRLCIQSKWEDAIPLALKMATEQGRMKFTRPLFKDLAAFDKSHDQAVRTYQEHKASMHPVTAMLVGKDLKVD
Source text: The IC50 of 4-{[(1S,4S)-5-({4-[4-oxazol-2-yl-phenoxy]phenyl}methyl)-2,5-diazabicyclo[2.2.1]heptan-2-yl]methyl}benzoic acid in human whole blood has been determined using an ex vivo assay. The human whole blood assay has been described in Penning et al (2000), Structure and Activity Relationship Studies on 1-[2-(4-Phenylphenoxy)ethyl]pyrrolidone (SC-22716), a Potent Inhibitor of Leukotriene A4 (LTA4) hydrolase, J. Med. Chem. 43: 721-735, the contents of which are expressly incorporated by reference herein. In this assay, LTB4 production is stimulated by addition of calcium ionophone (A23187) in the absence or presence of varied concentrations of 4-{[(1S,4S)-5-({4-[4-oxazol-2-yl-phenoxy]phenyl}methyl)-2,5-diazabicyclo[2.2.1]heptan-2-yl]methyl}benzoic acid. The ability of 4-{[(1S,4S)-5-({4-[4-oxazol-2-yl-phenoxy]phenyl}methyl)-2,5-diazabicyclo[2.2.1]heptan-2-yl]methyl}benzoic acid to reduce is LTB4 production is determined by ELISA. This ELISA assay was performed using the Leukotriene B4 EIA Kit available from Cayman Chemical (Item No. 520111) and the assay was performed according to the manufacturer's instructions.
as §1

peak plasma concentration relative to the IC50 ([1]; 5 mg oral dose): nearly achieves the IC50 | time for which the blood plasma level exceeds the IC50 ([1]; 15 mg oral dose): over 12 hours | time for which the blood plasma level exceeds 3-times the IC50 ([1]; 50 mg oral dose): over 24 hours | IC50 (LTA4-h; female blood): 68 nM | IC50 (LTA4-h; human whole blood, LTB4 production stimulated by calcium ionophore A23187): ~62.3 nM | IC50 (LTA4-h; male blood): 60 nM
Compound: O=C(O)c1ccc(CN2C[C@@H]3C[C@H]2CN3Cc2ccc(Oc3ccc(-c4ncco4)cc3)cc2)cc1 [4-{[(1S,4S)-5-({4-[4-oxazol-2-yl-phenoxy]phenyl}methyl)-2,5-diazabicyclo[2.2.1]heptan-2-yl]methyl}benzoic acid]
